{"source": "paper PMC5712788", "about": "“DM9 Domain Containing Protein Functions As a Pattern Recognition Receptor with Broad Microbial Recognition Spectrum” (Frontiers in Immunology, 2017)", "molecular_target": "T1, CgDM9CP-1 (rCgDM9CP-1) (Magallana gigas, UniProt K1QRB6)", "T1 construct": "gene CGI_10011001; recombinant, E. coli Transetta (DE3); two DM9 domains; mutants in pET-28a with N-terminal 6xHis; 5MH2 is D22A, 5MH3 is K43A", "T1 sequence (K1QRB6 1-143)": "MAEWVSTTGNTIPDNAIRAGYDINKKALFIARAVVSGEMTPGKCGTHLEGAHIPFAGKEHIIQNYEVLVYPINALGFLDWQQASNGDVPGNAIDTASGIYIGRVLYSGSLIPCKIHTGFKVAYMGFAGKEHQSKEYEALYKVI", "assay": "ITC", "assay_type": "binding", "conditions": "25°C, PBS (pH 7.2 in table, 7.4 in methods), N = 1", "description": "ITC on CgDM9CP-1 (rCgDM9CP-1)"}
{"smiles": "OC[C@H]1OC(O)[C@@H](O)[C@@H](O)[C@@H]1O", "note": "(stereo partly drawn) [D-mannose]", "values": [{"measurement": "Kd", "result": "123 ± 19.7", "unit": "µM"}, {"measurement": "Value", "result": "8.16 ± 0.19 10^3 M^−1"}]}
